Experimental data published in patent US20150359847A1, “METHOD AND COMPOSITION FOR CONFERRING NEUROPROTECTION” (BLOOD SYSTEMS RESEARCH INSTITUTE, priority 2014, published 2015).

What was measured:
[1] = test system: phospho-AKT(Ser473) in SH-SY5Y cells; assay: Akt (Ser473) phosphorylation in differentiated SH-SY5Y cells (antibody array, western blot, Phosflow); format: cell-based, human
Method: SH-SY5Y cells were obtained from ATCC (Cat# CRL-2266, Manassas, Va.) and were cultured in DMEM and 10% FBS up to passage 10. For differentiation of SH-SY5Y cells into a neuronal phenotype, cells were first plated in DMEEM+10% FBS for 24 hrs before exchanging media in DMEM+1% FBS 10 μM retinoic acid. Differentiation was performed for 3 days before experimentation. Hippocampal neurons were prepared according to the protocol by Beaudoin et al. (Nature Protocols 2012; 7(9):1741-1754) with minor modifications. In brief, after trypsin digestion of hippocampi isolated from P1 mouse pups single cell suspensions was created by trituration and plated onto Biocoat™ poly-D-lysine coated 12-well plates (Cat#354470, BD Biosciences, San Jose, Calif.). 2 pups were used per well and cell suspensions were incubated for 10 minutes per well for a total of 6 wells. The serial incubation allowed for variation in cell densities applicable to different experiments but also contributed to the reduction in non-neuronal cells. Typically wells 1-2 were pooled for western blotting and wells 4-5 were used for imaging following treatments. After the initial plating cells were incubated for 2 hrs before media was completely exchanged for maintenance media that was supplemented with 1 μM of the anti-mitotic cytosine arabinoside in order to further reduce non-neuronal cells. For western blot, cells were cultured for 7 days before experimentation. Half of maintenance media was exchanged on day 2 and day 5. For morphology experiments, treatments were initiated upon the introduction of maintenance media and was renewed 48 hrs later for a further 24 hrs of treatment. Experiments were terminated by fixation for 20 minutes with 4% paraformaldehyde after which cells were stored at 4° C. in PBS prior to staining protocols.
(§1) Pathscan Antibody™ array kits were purchased from Cell Signaling Technologies (Danvers, Mass.). PathScan® RTK signaling antibody array kit (Fluorescent Readout, Cat#7949) and PathScan™ Akt signaling antibody array kit (Fluorescent Readout, Cat#9700) were performed as per manufacturer's instructions. Imaging was performed on a LI-COR Odyssey™ infrared scanner and pixel densities measured by in house LI-COR Image™ suite software.
After experimentation, SH-SY5Y cells were detached from culture ware via trypsin digestion and rapidly mixed with an equal volume of BD cytofix fixation buffer (Cat#554655. BD Biosciences, San Jose, Calif.). After wash steps with PBS cells were permeabilized with BD phosflow Perm Buffer III (Cat#558050. BD Biosciences, San Jose, Calif.) and incubated on ice for 30 mins. After washing in BD stain buffer (Cat#554657. BD Biosciences, San Jose, Calif.) cells were counted and 1×10^6 cells were used antibody incubation. Negative IgG compensation control was obtained using ABC control beads (Cat# A10344. Life Technologies, Grand Island, N.Y.). Antibody incubations were conducted for 30 mins at RT in the dark. Following wash steps the volume was adjusted to 500 μl and results obtained using and LSR II flow cytometer and analyzed using Flowjo™ cytometric analytical software version 8.8.7.
(§2) Cell lysates for western blotting were prepared with RIPA buffer (Cat#89900. Thermofisher Scientific, Rockford, Ill.) supplemented with phosphatase inhibitor cocktail 2 (Cat# P5726. Sigma, St Louis, Mo.), phosphatase inhibitor cocktail 3 (Cat# P0044. Sigma, St Louis, Mo.) and complete protease inhibitor (Cat#1862209. Thermofisher Scientific, Rockford, Ill.). Complete homogenization was ensured by brief sonication using a Branson Sonifier 150, (Branson Ultrasonics Corporation, Danbury, Conn.). Protein content was quantified with a Pierce BCA protein assay kit per manufacturer's instructions (Cat#23225. Thermofisher Scientific, Rockford, Ill.).
(§3) Lysates was analyzed in conjuncture with the LI-COR Odyssey™ infra-red imaging system. […]

MMP-2 [2] = molecular target: MMP-2 (UniProt P08253); assay: cell-based or functional assay
MMP-9 [3] = molecular target: T1, MMP-9 (Homo sapiens, UniProt P14780); assay: cell-based or functional assay
Target sequence in this assay (P14780 107-707 limits assumed): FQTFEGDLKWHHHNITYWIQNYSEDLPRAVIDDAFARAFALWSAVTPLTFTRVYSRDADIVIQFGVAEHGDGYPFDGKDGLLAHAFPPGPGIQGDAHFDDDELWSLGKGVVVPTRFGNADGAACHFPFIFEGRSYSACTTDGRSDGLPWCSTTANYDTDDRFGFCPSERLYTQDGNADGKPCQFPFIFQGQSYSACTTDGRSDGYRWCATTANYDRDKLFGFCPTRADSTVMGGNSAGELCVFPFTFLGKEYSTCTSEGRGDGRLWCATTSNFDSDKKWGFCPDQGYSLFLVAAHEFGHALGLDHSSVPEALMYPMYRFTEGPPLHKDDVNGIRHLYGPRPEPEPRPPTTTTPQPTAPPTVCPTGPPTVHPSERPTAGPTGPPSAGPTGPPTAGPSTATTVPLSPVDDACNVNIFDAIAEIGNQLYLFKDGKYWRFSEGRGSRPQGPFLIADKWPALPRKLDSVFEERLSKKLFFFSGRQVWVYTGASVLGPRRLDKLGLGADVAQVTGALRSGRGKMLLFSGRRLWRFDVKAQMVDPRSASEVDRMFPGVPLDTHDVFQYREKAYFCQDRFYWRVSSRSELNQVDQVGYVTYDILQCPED

[4] = test system: S6 Ribosomal Protein (S235/236) in SH-SY5Y cells; assay: S6 Ribosomal Protein (S235/236) phosphorylation in SH-SY5Y cells; format: cell-based, human; conditions: 10 μM GM6001, 15 minutes
Method: (§4) SH-SY5Y cells were obtained from ATCC (Cat# CRL-2266, Manassas, Va.) and were cultured in DMEM and 10% FBS up to passage 10. For differentiation of SH-SY5Y cells into a neuronal phenotype, cells were first plated in DMEEM+10% FBS for 24 hrs before exchanging media in DMEM+1% FBS 10 μM retinoic acid. Differentiation was performed for 3 days before experimentation. Hippocampal neurons were prepared according to the protocol by Beaudoin et al. (Nature Protocols 2012; 7(9):1741-1754) with minor modifications. In brief, after trypsin digestion of hippocampi isolated from P1 mouse pups single cell suspensions was created by trituration and plated onto Biocoat™ poly-D-lysine coated 12-well plates (Cat#354470, BD Biosciences, San Jose, Calif.). 2 pups were used per well and cell suspensions were incubated for 10 minutes per well for a total of 6 wells. The serial incubation allowed for variation in cell densities applicable to different experiments but also contributed to the reduction in non-neuronal cells. […]
as §1
as §2, with “Complete homogenization was ensured by brief sonication using a Branson Sonifier 150, (Branson Ultrasonics Corporation, Danbury, Conn.).” left out
as §3

MMP-2 [5] = molecular target: T2, MMP-2 (Homo sapiens, UniProt P08253); assay: SensoLyte Fluorimetric MMP-2 Activity Assay; format: biochemical; conditions: GM6001
T2 sequence (P08253 110-660): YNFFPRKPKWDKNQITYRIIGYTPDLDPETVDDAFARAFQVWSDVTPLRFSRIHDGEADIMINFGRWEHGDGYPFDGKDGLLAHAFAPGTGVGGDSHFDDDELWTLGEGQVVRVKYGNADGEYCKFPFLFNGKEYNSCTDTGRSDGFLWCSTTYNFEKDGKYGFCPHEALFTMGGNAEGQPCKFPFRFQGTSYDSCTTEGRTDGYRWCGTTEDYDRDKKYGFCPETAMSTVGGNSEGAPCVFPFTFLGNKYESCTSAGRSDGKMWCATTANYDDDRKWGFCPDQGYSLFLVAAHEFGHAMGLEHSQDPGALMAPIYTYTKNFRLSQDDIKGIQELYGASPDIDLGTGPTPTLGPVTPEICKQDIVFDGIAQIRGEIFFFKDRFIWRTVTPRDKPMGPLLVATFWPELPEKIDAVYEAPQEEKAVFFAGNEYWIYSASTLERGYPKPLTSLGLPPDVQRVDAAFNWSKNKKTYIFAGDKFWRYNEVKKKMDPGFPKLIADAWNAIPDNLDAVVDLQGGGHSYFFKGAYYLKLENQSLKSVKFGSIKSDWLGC
Text: (§5) SensoLyte Fluorimetric MMP-2 Activity Assay Kit™ (Cat#71151) and SensoLyte Fluorimetric MMP-9 Activity Assay Kit™ (Cat#71155) were purchased from AnaSpec (Fremont, Calif.) and performed per manufacturer's instructions.

MMP-9 [6] = molecular target: T1, MMP-9; assay: SensoLyte Fluorimetric MMP-9 Activity Assay; format: biochemical; conditions: GM6001
Text: as §5
Target sequence in this assay (P14780 94-707, species assumed): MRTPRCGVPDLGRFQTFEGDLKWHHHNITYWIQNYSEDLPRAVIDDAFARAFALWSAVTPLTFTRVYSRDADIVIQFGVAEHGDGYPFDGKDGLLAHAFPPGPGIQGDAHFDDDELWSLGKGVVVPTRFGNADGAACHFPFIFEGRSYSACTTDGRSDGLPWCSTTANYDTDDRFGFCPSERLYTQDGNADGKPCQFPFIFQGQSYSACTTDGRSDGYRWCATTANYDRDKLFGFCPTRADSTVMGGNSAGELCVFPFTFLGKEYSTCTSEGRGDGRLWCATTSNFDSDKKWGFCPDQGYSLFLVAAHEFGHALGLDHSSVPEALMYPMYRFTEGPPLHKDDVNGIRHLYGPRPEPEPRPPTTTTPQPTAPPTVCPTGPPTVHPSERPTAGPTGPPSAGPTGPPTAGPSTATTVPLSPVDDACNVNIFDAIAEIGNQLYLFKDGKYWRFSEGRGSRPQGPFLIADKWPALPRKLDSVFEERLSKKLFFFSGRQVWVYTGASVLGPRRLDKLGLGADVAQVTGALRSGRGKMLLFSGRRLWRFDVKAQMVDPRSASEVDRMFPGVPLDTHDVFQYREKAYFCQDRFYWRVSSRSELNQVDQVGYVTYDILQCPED

[7] = Brain distribution of IV infra-red tagged TIMP3 post-TBI; format: in vivo, mouse; conditions: coronal section through impact site, n=2
Text: FIGS. 2A-2B are graphical representations depicting various data relating to intravenous TIMP3 which preserves vulnerable neuronal populations in the hippocampus. (A) Coronal section through the impact site showing target coverage following IV administration of an infra-red tagged TIMP3. Spectrum bar indicates the intensity of the distribution. […] (B) NeuN staining of post-mitotic mature neurons 7 days post-TBI. Representative photomi-crographs of ipsilateral hippocampi from the 3 groups show NeuN staining in the granule cell layer (GCL) and Hilus (HL) of the dentate gyrus. Highlighted area panels show enhanced view of NeuN+ve hilar interneurons. Scale bar=100 μm. Lower panel, quantification of NeuN+ve neurons in the HL. n=4, 4 section per animal, mean±s.e.m. […] (C) DCX staining of neural progenitors/immature neurons 7 days post-TBI. Representative photomi-crographs of ipsilateral hippocampi from the 3 groups showing DCX staining in the subgranule zone (SGZ) of the dentate gyrus. Highlighted area panels show enhanced view of DCX positive immature neurons. […] Lower panel, quantification of DCX+ve neurons, n=4, 4 sections per animal, mean±s.e.m.
Subsequently, the inventors sought to determine the effects IV TIMP3 post-TBI on hippocampal neuronal populations. […] To further examine the effects of TIMP3 on neuronal cells the presence of neural progenitors was quantified by DCX staining. […]

hippocampal neurons = assay: Sholl analysis of isolated hippocampal neurons; format: cell-based, mouse; conditions: shRNA vs scrambled sequence (SCR); 7 days post-transfection
Method: as §4
Sholl analysis on processed images of isolated hippocampal neurons was conducted using the Fiji derivation of Image J. (Hypertext Transfer Protocol://Fiji.sc.Fiji). […] After neurites had been traced the images were rendered as an analyzed skeleton and Sholl analysis was run on the image from the Analyze menu option.

mTOR = assay: Real-time PCR of mTOR message in transfected hippocampal neurons; format: cell-based, mouse; conditions: 7 days post-transfection; during TIMP3 treatment; relative to actin
Method: Primary hippocampal neuron suspensions were transfected post-trituration and prior to plating. Neurons were ‘Nucleofected’ using a 4D-Nucleofector™ System (Lonza, Walkersville, Md.) in conjunction with a P3 Primary Cell 4D-Nucleofector® X Kit. In brief, 5×10^5 cells were nucleofected with 1.5 μg DNA resuspended in 100 μl of P3 solution after which cells were plated and cultured per normal protocol.
Plasmid vector pENN.AAV.U6.ShRLuc.CMV.eGFP.SV40 was provided by the Penn vector core, University of Pennsylvania, (Philadelphia, Pa.). mTOR shRNA sequence was chosen based on the previous publication by Jaworrski et al (43). Sequence ‘mTOR3071’ was chosen based on complete sequence identity between rat and mouse genes. Scrambled sequence (SCR) was designed using the online scramble design tool by genscript on the World Wide Web at genscript.com/ssl-bin/app/scramble. […]
Cells were lysed using 0.7 mL of QIAzol™ reagent (Qiagen, Valencia Calif.), followed by 15 min centrifugation at 12,000 g at 4° C. […] Quantitative real-time PCR measuring mouse-specific mTOR and Beta-actin (ACTB) genes using Taqman™ real time PCR was performed using the ABI ViiA 7 Real-Time PCR System™. Raw cycle threshold (Ct) numbers of amplified mTOR gene products were normalized to the housekeeping gene ACTB to control for cDNA input amounts. mRNA relative copy number was determined using the comparative Ct method.

With `CO[C@H]1C[C@@H]2CC[C@@H](C)[C@@](O)(O2)C(=O)C(=O)N2CCCC[C@H]2C(=O)O[C@H]([C@H](C)C[C@@H]2CC[C@@H](O)[C@H](OC)C2)CC(=O)[C@H](C)/C=C(\C)[C@@H](O)[C@@H](OC)C(=O)[C@H](C)C[C@H](C)/C=C/C=C/C=C/1C` [rapamycin, Rapamycin, reference compound] the “Akt (Ser473) phosphorylation with rapamycin, western blot” value ([1]; rapamycin pre-treatment with TIMP3) was “not inhibited”.

In the case of “Recombinant TIMP3 (tissue inhibitor of matrix metalloproteinase-3) (from UniProt P35625 24-211)”, the Sensolyte FRET assay of MMP-2 enzyme activity; TIMP3 concentration that gives full inhibition (MMP-2 [2]) is reported as 1 µg/mL and the Sensolyte FRET assay of MMP-9 enzyme activity; TIMP3 concentration that gives full inhibition (MMP-9 [3]) is reported as 1 µg/mL.

In the case of `CNC(=O)[C@H](Cc1c[nH]c2ccccc12)NC(=O)[C@@H](CC(=O)NO)CC(C)C` [GM6001, reference compound], the “phosphorylation of Akt (Ser473), western blot” value ([1]; 10 μM GM6001, 15 minutes) is reported as “did not result in increased phosphorylation”, the “phosphorylation of S6RP (S235/236), western blot” value [4] is reported as “did not result in increased phosphorylation” and the “MMP-2 inhibition (Sensolyte FRET assay)” value (MMP-2 [5]) is reported as “complete MMP inhibition”. The “MMP-9 inhibition (Sensolyte FRET assay)” value (MMP-9 [6]) was “complete MMP inhibition”.

B1: infra-red tagged TIMP3: Infra-red tagged version of recombinant TIMP3, obtained from Amgen Inc. (protein, UniProt P35625 24-211, looked up)
Metalloproteinase inhibitor 3: CTCSPSHPQDAFCNSDIVIRAKVVGKKLVKEGPFGTLVYTIKQMKMYRGFTKMPHVQYIHTEASESLCGLKLEVNKYQYLLTGRVYDGKMYTGLCNFVERWDQLTLSQRKGLNYRYHLGCNCKIKSCYYLPCFVTSKNECLWTDMLSNFGYPGYQSKHYACIRQKGGYCSWYRGWAPPDKSIINATDP
modifications: infra-red dye label
With B1 the “penetrance into the ipsilateral hippocampus after IV administration” value [7] was “penentrance of TIMP3 into the ipsilateral hippocampus”.

B2: shRNA against mTOR: shRNA sequence mTOR3071 (SEQ ID NO: 1) cloned into plasmid pENN.AAV.U6.ShRLuc.CMV.eGFP.SV40 (nucleic acid)
guide: GGAUCCGAGCCACATCCGTCCCTACTTCAAGAGAGTAGGGACGGATGTGGCTCTTTTTGAAUCC
In the case of B2, the “effect on TIMP3-promoted neurite outgrowth (Sholl analysis)” value (hippocampal neurons) is reported as “significantly inhibited the effects of TIMP3 on neurite outgrowth” and the “reduction of mTOR message levels compared to SCR” value (mTOR) is reported as “approximately 50%”.
